{
  "source": "patent US20230054767A1",
  "about": "“COMBINATIONS” (Recurium IP Holdings, LLC, priority 2019, published 2023)",
  "assay_type_in_all_cases": "in vivo",
  "key": {"MCF-7 cells [1]": {"test_system": "MCF-7 cells", "test": "Example 1: MCF-7 xenograft tumor model, Compound A and Compound 5", "details": "BALB/c nude mice, orally once a day for 21 days, Compound A 10 mg/kg, Compound 5 200 mg/kg, alone or combined", "procedure": "Example 1: MCF-7 cells were grown in DMEM Medium supplemented with 15% heat inactivated fetal bovine serum at 37° C. in an atmosphere of 5% CO2 in air. BALB/c nude mice were implanted subcutaneously on the 2nd right mammary fat pad with a single cell suspension of 95% viable tumor cells (1.5×10^7) in 200 μL DMEM Matrigel mixture (1:1 ratio) without serum. When tumors reached approximately 172 mm^3, animals were randomly distributed into treatment groups of 10 animals each and dosed orally, once a day for 21 days as follows: vehicle at the same volume as the single agent treatment; Compound A (alternatively referred to as “Compound (A)” in the specification and figures) at 10 mg/kg; Compound 5 at 200 mg/kg; and the combination treatment of Compound A 10 mg/kg) and Compound 5 (200 mg/kg). In addition, estradiol benzoate injections were given subcutaneously (40 μg/ 20 μL, twice weekly) to all treatment groups. Tumor volumes were evaluated twice per week to calculate tumor volume over time, and mice were weighed twice per week as a surrogate for signs of toxicity. Tumor growth inhibition (TGI) was calculated using the following equation TGI=(1−(Td−T0)/(Cd−C0))×100%. […] The percent tumor regression was calculated using the formula: (1−(Td/T0))×100%."}, "MCF-7 cells [2]": {"test_system": "MCF-7 cells", "test": "Example 2: MCF-7 xenograft tumor model, Compound A (5 mg/kg) and Compound 5", "details": "BALB/c nude mice, orally once a day for 24 days, Compound 5 200 mg/kg, alone or combined", "procedure": "(§1) Example 1: MCF-7 cells were grown in DMEM Medium supplemented with 15% heat inactivated fetal bovine serum at 37° C. in an atmosphere of 5% CO2 in air. BALB/c nude mice were implanted subcutaneously on the 2nd right mammary fat pad with a single cell suspension of 95% viable tumor cells (1.5×10^7) in 200 μL DMEM Matrigel mixture (1:1 ratio) without serum. […] Tumor volumes were evaluated twice per week to calculate tumor volume over time, and mice were weighed twice per week as a surrogate for signs of toxicity. […] The percent tumor regression was calculated using the formula: (1−(Td/T0))×100%.\nExample 2: MCF-7 cells were grown in DMEM Medium supplemented with 15% heat inactivated fetal bovine serum at 37° C. in an atmosphere of 5% CO2 in air. […] Tumor volumes were evaluated twice per week to calculate tumor volume over time, and mice were weighed twice per week as a surrogate for signs of toxicity. TGI and Tumor regression values were calculated using the equations provided in Example 1. […]"}, "MCF-7 cells [3]": {"test_system": "MCF-7 cells", "test": "Example 3: MCF-7 xenograft tumor model, Compound A and Compound 6", "details": "BALB/c nude mice, orally once a day for 28 days, Compound A 10 mg/kg, Compound 6 50 mg/kg, alone or combined", "procedure": "as §1\nExample 3: MCF-7 cells were grown in DMEM Medium supplemented with 15% heat inactivated fetal bovine serum at 37° C. in an atmosphere of 5% CO2 in air. […] Tumor volumes were evaluated twice per week to calculate tumor volume over time, and mice were weighed twice per week as a surrogate for signs of toxicity. TGI and Tumor regression values were calculated using the equations provided in Example 1."}},
  "data": [
    {"smiles": "C[C@@H]1Cc2c([nH]c3ccccc23)[C@@H](c2c(F)cc(/C=C/C(=O)O)cc2F)N1C12CC(C1)C2", "note": "[Compound A]", "values": [
      {"measurement": "TUMOR REGRESSION % (DAY 21)", "setting": "MCF-7 cells [1]", "value": 0, "unit": "%"},
      {"measurement": "TGI % (DAY 21)", "setting": "MCF-7 cells [1]; estradiol benzoate s.c.", "value": 81, "unit": "%"},
      {"measurement": "TUMOR REGRESSION % (DAY 24)", "setting": "MCF-7 cells [2]", "value": 8, "unit": "%"},
      {"measurement": "TGI % (DAY 24)", "setting": "MCF-7 cells [2]; estradiol benzoate s.c.", "value": 108, "unit": "%"},
      {"measurement": "TUMOR REGRESSION % (DAY 29)", "setting": "MCF-7 cells [3]", "value": 33, "unit": "%"},
      {"measurement": "TGI % (DAY 29)", "setting": "MCF-7 cells [3]; estradiol benzoate s.c.", "value": 120, "unit": "%"}
    ]}
  ]
}
